Marks after values point to notes of the source that are not given here.
Experiments:
immune system [1] = assay: Immunological indices in intact August rats; assay type: in vivo; settings: about 50 mg/kg IP daily for 10 days
Text: (§1) Additional immunological data were obtained from an “August” line of rats, weighing 140-160 g, with and without Pliss lymphosarcoma. […] Results are summarized in Table V. Overall, lyophilized-dimethylaminoarglabin hydrochloride stimulated delayed type hypersensitivity, but reduced all other studied indices in intact rats. In rats with Pliss Lymphosarcoma, the immune system was stimulated, as all studied indices increased.

[2] = Toxicity and maximum tolerable doses of arglabin and derivatives; assay type: in vivo, rats, guinea pigs, mice, rabbits; settings: 2% aqueous solution, blood serum and hepatic tissue
Text: Overall, the compounds in this family have low toxicity and are tolerated at dosages exceeding the therapeutic dosage.
Blood pressure was maintained.

stage IV cancer = assay: Second clinical trial, 72 patients; assay type: in vivo, human
Text: A three to six month lag in dimethylaminoarglabin hydrochloride production halted the first clinical trial. […] Among the patients, 25% had carcinoma of the stomach, 16.7% had liver cancer, 18.1% had lung cancer and the remaining 40.2% had esophageal, breast, ovarian, pancreatic, brain or lymphosarcoma. Patients with poorer states had metastases to the liver (25%), retroperitoneal lymph nodes (25), ascites (22.2%) and exudative pleuritis (11.1%).

[3] = tested on: Pliss Lymphosarcoma resistant to prospidine; assay: Inhibition of growth of resistant tumour strains; duration of life and metastasis; assay type: in vivo, rats
immune system [4] = assay: Immunological indices in August rats with Pliss lymphosarcoma; assay type: in vivo; settings: Increased; about 50 mg/kg IP daily for 10 days
Text: as §1

[5] = Ability to keep normal activities, minimum signs of the disease
[6] = Maintains themself, but is not able to work
[7] = Needs occasional assistance, but is able to maintain themself
[8] = Normal activities are hardly performable, some signs of the disease

Compound: CC1=CCC23OC2(C)CCC2C(CN(C)C)C(=O)OC2C13.Cl (centres unmarked) [Dimethylaminoarglabin hydrochloride]
- Hemagglutination (RHG), Intact Rats After Treatment (immune system [1]; Decreased): 43-53%
- Nitroblue tetrazolium (NBT), Intact Rats After Treatment (immune system [1]; Decreased): 67-91%
- Spontaneous-erythrocyte rosette forming (E-ROK), Intact Rats After Treatment (immune system [1]; Decreased): 64-84%
- Delayed type hypersensitivity, Intact Rats After Treatment (immune system [1]; Increased): 153-207%
- findings after prolonged daily intraperitoneal administration [2]: Reversible changes in glycolysis and tissue respiration
- patients with no response (stage IV cancer; 8 of 72): 11.1%
- patients responded to therapy (stage IV cancer; 64 of 72): 88.9%
- % of Patients - Absence of dynamics or stabilization (stage IV cancer; 72 patients): 31.9%
- % of Patients - Partial regression over or equal to 50% decrease of tumor or metastasis (stage IV cancer; 72 patients): 61.1%
- % of Patients - Progression (stage IV cancer; 72 patients): 7.0%
- Number of Patients % - Karnofsky scale 90 (stage IV cancer; [5]): 41.7%
- Number of Patients abs, N - Karnofsky scale 90 (stage IV cancer; [5]): 30
- Thrombocytes, mean index of peripheral blood (stage IV cancer; After Treatment (before treatment 2.0)): 2.8 thsd
- Erythrocytes, mean index of peripheral blood (stage IV cancer; After Treatment (before treatment 2.3-3.0)): 3.0 10^12/l-10^9/l
- Leukocytes, mean index of peripheral blood (stage IV cancer; After Treatment (before treatment 4.5-5.5)): 4.0 10^12/l-10^9/l
- Lymphocytes, mean index of peripheral blood (stage IV cancer; After Treatment (before treatment 8-15)): 15-20
- Thrombocytes, mean index of peripheral blood (stage IV cancer; During Treatment (before treatment 2.0)): 2.3 thsd
- Erythrocytes, mean index of peripheral blood (stage IV cancer; During Treatment (before treatment 2.3-3.0)): 2.4-3.0 10^12/l-10^9/l
- Leukocytes, mean index of peripheral blood (stage IV cancer; During Treatment (before treatment 4.5-5.5)): 3.5-4.0 10^12/l-10^9/l
- Lymphocytes, mean index of peripheral blood (stage IV cancer; During Treatment (before treatment 8-15)): 28-35
- Number of Patients % - Karnofsky scale 30 (stage IV cancer; Extreme invalidism): 4.2%
- Number of Patients abs, N - Karnofsky scale 30 (stage IV cancer; Extreme invalidism): 3
- Number of Patients % - Karnofsky scale 70 (stage IV cancer; [6]): 33.3%
- Number of Patients abs, N - Karnofsky scale 70 (stage IV cancer; [6]): 24
- Number of Patients % - Karnofsky scale 60 (stage IV cancer; [7]): 6.9%
- Number of Patients abs, N - Karnofsky scale 60 (stage IV cancer; [7]): 5
- Number of Patients % - Karnofsky scale 80 (stage IV cancer; [8]): 13.9%
- Number of Patients abs, N - Karnofsky scale 80 (stage IV cancer; [8]): 10
- side effects (stage IV cancer; patients, hydrochloride): No side effects
- Inhibition of Tumour Strains Growth, % - Resistant Forms - Pliss Lymphosarcoma to prospidine ([3]; dose 30 mg/kg): 62.3%
- Inhibition of Tumour Strains Growth, % - Resistant Forms - Pliss Lymphosarcoma to prospidine ([3]; dose 50 mg/kg): 87.4*** %
- Delayed type hypersensitivity, Rats with Pliss Lymphosarcoma After Treatment (immune system [4]): 89.9-132.2%
- Hemagglutination (RHG), Rats with Pliss Lymphosarcoma After Treatment (immune system [4]): 82.2-142.6%
- Nitroblue tetrazolium (NBT), Rats with Pliss Lymphosarcoma After Treatment (immune system [4]): 79.2-175.4%
- Spontaneous-erythrocyte rosette forming (E-ROK), Rats with Pliss Lymphosarcoma After Treatment (immune system [4]): 94.8-162.5%

Source: patent US6770673B1, “Therapeutic uses of arglabin in combination with other chemotherapy agents” (priority 1997, dated 2004)
